Data on 12 compounds can be found in patent publication US20240294522A1 (Lead Discovery Center GmbH, priority 2021, published 2024).

In test [1] the target is T1, GRK2 (Homo sapiens, UniProt P25098).
T1 construct: purchased Thermo Scientific
T1 sequence (P25098 1-689): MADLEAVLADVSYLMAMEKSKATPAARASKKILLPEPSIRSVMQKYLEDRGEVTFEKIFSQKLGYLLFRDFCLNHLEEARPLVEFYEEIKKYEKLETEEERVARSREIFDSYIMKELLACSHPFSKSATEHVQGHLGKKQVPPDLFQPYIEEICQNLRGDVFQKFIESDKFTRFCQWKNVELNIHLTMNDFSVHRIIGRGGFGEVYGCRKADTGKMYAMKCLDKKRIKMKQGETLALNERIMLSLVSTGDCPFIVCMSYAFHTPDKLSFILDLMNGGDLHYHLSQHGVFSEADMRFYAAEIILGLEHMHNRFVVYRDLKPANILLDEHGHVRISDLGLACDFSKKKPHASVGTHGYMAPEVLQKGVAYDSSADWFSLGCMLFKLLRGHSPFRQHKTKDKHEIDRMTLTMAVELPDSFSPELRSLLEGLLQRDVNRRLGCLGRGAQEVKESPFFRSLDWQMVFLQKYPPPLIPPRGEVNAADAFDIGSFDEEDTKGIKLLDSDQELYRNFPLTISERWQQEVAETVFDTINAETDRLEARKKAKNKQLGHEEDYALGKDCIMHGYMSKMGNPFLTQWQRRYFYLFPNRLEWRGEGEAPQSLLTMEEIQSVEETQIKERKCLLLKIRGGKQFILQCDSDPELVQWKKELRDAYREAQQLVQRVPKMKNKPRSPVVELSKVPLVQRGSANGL
The test is described as follows: Lance Kinase Activity Assay, GRK2. The conditions noted are these: biochemical Lance kinase activity assay; class symbols A-F; read-out: GRK2 LANCE Assay (IC-50). The method, boiled down:
(§1)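 IC50s from sigmoidal dose-response over 0.0025-10 μM compound, with phosphorylated ULight substrate detected by Eu anti-phospho antibody FRET after EDTA quench.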

In test [2] the test system is neonatal rat ventricular cardiac myocytes (NRVCMs). The test is described as follows: In vitro cardiomyocyte hypertrophy assay. Format: cell-based, Wistar rats. To be noted: inhibition of cellular hypertrophy, NRVCMs stimulated with phenylephrine 20 μM and leukemia inhibitory factor 50 ng/ml, 96 h, read-out: Hypertrophy Assay (IC-50). As for the experimental part:
5-6 days old Wistar rats were sacrificed by decapitation and neonatal rat ventricular cardiac myocytes (NRVCMs) were prepared using the Neonatal heart dissociation kit (Miltenyi Biotec) according to the manufacturer's instructions. The cardiac single cell suspension was resuspended in DMEM low glucose medium supplemented with 2% fetal bovine serum (FBS) and 50 μg/ml penicillin/streptomycin. 1500 cells/well were seeded on 0.1% gelatin-coated 384-well plates and incubated in medium at 37° C. and 5% CO2 for 24 h prior to the addition of test compounds to the cells at titrated concentrations. Cellular hypertrophy was then stimulated by adding phenylephrine and leukemia inhibitory factor at final concentrations of 20 μM and 50 ng/ml, respectively, and the cells were incubated for another 96 h. For immunocytochemistry, cells were fixed with 4% formaldehyde on day 5 of compound treatment and cardiomyocytes were stained with antibodies against a-actinin while cell nuclei were stained with DAPI. Image acquisition and phenotypic analysis was performed using an Image-Xpress Micro XL automated microscope (Molecular Devices).
Inhibition of cellular hypertrophy is indicated as IC50 [nM]. Compounds having an activity designated as “A” provided an IC50≤500 nM; compounds having an activity designated as “B” provided an 500 nM<IC50≤1000 nM; compounds having an activity designated as “C” provided an IC50>1000 nM.

The target of test [3] is T2, GRK5 (Homo sapiens, UniProt P34947).
T2 construct: purchased Thermo Scientific
The test is described as follows: Lance Kinase Activity Assay, GRK5. The conditions noted are these: biochemical Lance kinase activity assay; class symbols A-F; read-out: GRK5 LANCE Assay (IC-50). The method, boiled down:
as §1
(TR-FRET usually uses a lanthanide donor and a delayed reading to cut background.)

pIC50: −log10 of the molar value.

T2 sequence (P34947 whole entry): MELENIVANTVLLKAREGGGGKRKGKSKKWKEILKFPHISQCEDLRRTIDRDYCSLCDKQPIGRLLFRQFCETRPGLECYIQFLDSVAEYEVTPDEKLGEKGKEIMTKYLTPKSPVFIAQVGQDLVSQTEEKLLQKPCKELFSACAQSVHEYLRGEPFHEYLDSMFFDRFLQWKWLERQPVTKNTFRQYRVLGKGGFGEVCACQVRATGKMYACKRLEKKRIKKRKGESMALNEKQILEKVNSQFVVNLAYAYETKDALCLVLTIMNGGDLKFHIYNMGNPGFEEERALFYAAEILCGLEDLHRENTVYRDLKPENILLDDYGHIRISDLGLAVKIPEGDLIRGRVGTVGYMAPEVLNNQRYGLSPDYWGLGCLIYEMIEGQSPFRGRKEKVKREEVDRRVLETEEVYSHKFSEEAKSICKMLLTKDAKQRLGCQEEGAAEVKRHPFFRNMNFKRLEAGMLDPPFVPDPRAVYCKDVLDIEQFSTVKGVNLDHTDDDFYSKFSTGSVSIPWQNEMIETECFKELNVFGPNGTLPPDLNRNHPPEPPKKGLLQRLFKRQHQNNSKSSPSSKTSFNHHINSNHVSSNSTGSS

For `COc1ccc([C@@H](C)NC(=O)/C=C/c2c[nH]c3ncc(-c4cccc(SC)c4)cc23)cc1OC` [Example 254, (R,E)-N-(1-(3,4-dimethoxyphenyl)ethyl)-3-(5-(3-(methylthio)phenyl)-1H-pyrrolo[2,3-b]pyridin-3-yl)acrylamide], the results for the pIC50 in test [1], in test [2] and in test [3] were < 5.00, < 6.00 and ≥ 7.30, respectively.
On to `COc1ccc([C@@H](C)NC(=O)/C(C#N)=C/c2c[nH]c3ncc(OCCN(C)C)cc23)cc1OC` [Example 104, (R,E)-2-cyano-N-(1-(3,4-dimethoxyphenyl)ethyl)-3-(5-(2-(dimethylamino)ethoxy)-1H-pyrrolo[2,3-b]pyridin-3-yl)acrylamide], for which the pIC50 in test [1] was 5.00 to 6.00; in test [2] it was < 6.00; in test [3], ≥ 7.30.
In the case of `COc1ccc([C@@H](C)NC(=O)/C=C/c2c[nH]c3ncc(-c4ccc(S(C)(=O)=O)cc4)cc23)cc1OC` [Example 219, (R,E)-N-(1-(3,4-dimethoxyphenyl)ethyl)-3-(5-(4-(methylsulfonyl)phenyl)-1H-pyrrolo[2,3-b]pyridin-3-yl)acrylamide], the pIC50 in test [1] is 5.00 to 6.00; in test [2], < 6.00; in test [3], ≥ 7.30.
In the case of `COc1cc([C@@H](C)NC(=O)/C(C#N)=C/c2c[nH]c3ncc(-c4cnn(C)c4)cc23)ccc1F` [Example 94, (R,E)-2-cyano-N-(1-(4-fluoro-3-methoxyphenyl)ethyl)-3-(5-(1-methyl-1H-pyrazol-4-yl)-1H-pyrrolo[2,3-b]pyridin-3-yl)acrylamide], the figures for the pIC50 in test [1], in test [2] and in test [3] were 7.00 to 7.30, ≥ 6.30 and ≥ 7.30, respectively.
On to `COc1ccc([C@@H](C)NC(=O)/C=C/c2c[nH]c3ncc(-c4ccc(N5CCN(C)CC5)cc4)cc23)cc1OC` [Example 113, (R,E)-N-(1-(3,4-dimethoxyphenyl)ethyl)-3-(5-(4-(4-methylpiperazin-1-yl)phenyl)-1H-pyrrolo[2,3-b]pyridin-3-yl)acrylamide], for which the pIC50 in test [1] was 6.00 to 6.30; in test [2] it was ≥ 6.30; in test [3] it was ≥ 7.30.
For `COc1ccc([C@@H](C)NC(=O)/C(C#N)=C/c2c[nH]c3ncc(-c4ccc(CN(C)C)cc4)cc23)cc1OC` [Example 117, (R,E)-2-cyano-N-(1-(3,4-dimethoxyphenyl)ethyl)-3-(5-(4-((dimethylamino)methyl)phenyl)-1H-pyrrolo[2,3-b]pyridin-3-yl)acrylamide], the pIC50 was 5.00 to 6.00 in test [1], 6.00 to 6.30 in test [2] and ≥ 7.30 in test [3].
Consider `COc1ccc([C@@H](CO)NC(=O)/C(C#N)=C/c2c[nH]c3ncc(-c4cnn(C)c4)cc23)cc1OC` [Example 92, (S,E)-2-cyano-N-(1-(3,4-dimethoxyphenyl)-2-hydroxyethyl)-3-(5-(1-methyl-1H-pyrazol-4-yl)-1H-pyrrolo[2,3-b]pyridin-3-yl)acrylamide], for which the pIC50 in test [1] is 5.00 to 6.00; in test [2], < 6.00; in test [3], ≥ 7.30.
Taken in the same sequence, the figures for `COc1ccc([C@@H](C)NC(=O)/C=C/c2c[nH]c3ncc(-c4cnn(CCN(C)C)c4)cc23)cc1OC` [Example 213, (R,E)-N-(1-(3,4-dimethoxyphenyl)ethyl)-3-(5-(1-(2-(dimethylamino)ethyl)-1H-pyrazol-4-yl)-1H-pyrrolo[2,3-b]pyridin-3-yl)acrylamide] were 5.00 to 6.00, < 6.00 and ≥ 7.30.
As for `COc1ccc([C@@H](C)NC(=O)/C=C/c2c[nH]c3ncc(-c4cnn5ccccc45)cc23)cc1OC` [Example 205, (R,E)-N-(1-(3,4-dimethoxyphenyl)ethyl)-3-(5-(pyrazolo[1,5-a]pyridin-3-yl)-1H-pyrrolo[2,3-b]pyridin-3-yl)acrylamide], the values for the pIC50 in test [1], in test [2] and in test [3] were 5.00 to 6.00, 6.00 to 6.30 and ≥ 7.30, respectively.
Regarding `COc1ccc([C@@H](C)NC(=O)/C(C#N)=C/c2c[nH]c3ncc(-c4cnn(C5CCNCC5)c4)cc23)cc1OC` [Example 89, (R,E)-2-cyano-N-(1-(3,4-dimethoxyphenyl)ethyl)-3-(5-(1-(piperidin-4-yl)-1H-pyrazol-4-yl)-1H-pyrrolo[2,3-b]pyridin-3-yl)acrylamide], the figures for the pIC50 in test [1], in test [2] and in test [3] were 5.00 to 6.00, < 6.00 and ≥ 7.30, respectively.
In the case of `COc1ccc([C@@H](C)NC(=O)/C(C#N)=C/c2c[nH]c3ncc(-c4ccc(F)c(S(C)(=O)=O)c4)cc23)cc1OC` [Example 169], the pIC50 in test [1] is 5.00 to 6.00; in test [2] it was 6.00 to 6.30; in test [3] it was ≥ 7.30.
In the case of `C[C@@H](NC(=O)/C(C#N)=C/c1c[nH]c2ncc(-c3cnn(C)c3)cc12)c1ccc2c(c1)OCO2` [Example 252, (R,E)-N-(1-(benzo[d][1,3]dioxol-5-yl)ethyl)-2-cyano-3-(5-(1-methyl-1H-pyrazol-4-yl)-1H-pyrrolo[2,3-b]pyridin-3-yl)acrylamide], the pIC50 in test [1] was 6.00 to 6.30; in test [2], ≥ 6.30; in test [3], ≥ 7.30.
